Measurements: PMC4127523, “A novel 11β-hydroxysteroid dehydrogenase type1 inhibitor CNX-010-49 improves hyperglycemia, lipid profile and reduces body weight in diet induced obese C57B6/J mice with a potential to provide cardio protective benefits” (BMC Pharmacology & Toxicology, 2014)
pIC50: −log10 of the molar value.

Molecular target: T1, 11β-hydroxysteroid dehydrogenase type 1 (11β-HSD1), mouse isoform (Mus musculus, UniProt P50172)
T1 construct: gene Hsd11b1; native 11β-HSD1 in differentiated C2C12 myotubes
T1 sequence (P50172 whole entry, canonical isoform): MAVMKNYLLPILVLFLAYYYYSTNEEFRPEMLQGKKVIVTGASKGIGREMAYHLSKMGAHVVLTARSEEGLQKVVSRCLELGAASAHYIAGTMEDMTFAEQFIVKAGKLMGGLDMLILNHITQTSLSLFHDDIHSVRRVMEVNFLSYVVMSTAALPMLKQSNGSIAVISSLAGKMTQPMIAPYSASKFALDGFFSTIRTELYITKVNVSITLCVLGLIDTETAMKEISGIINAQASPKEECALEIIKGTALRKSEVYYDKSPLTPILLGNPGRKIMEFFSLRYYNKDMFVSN
Assay: Cell-based cortisone to cortisol conversion in C2C12 myotubes, LCMS/MS

How did the pIC50 turn out when CNX-010-49 was run?
The pIC50 was 7.19.
